Publication PMC4945764, “Effect of flecainide derivatives on sarcoplasmic reticulum calcium release suggests a lack of direct action on the cardiac ryanodine receptor” (British Journal of Pharmacology, 2016)

Experiments:
[1] = molecular target: T1, cardiac ryanodine receptor (RyR2) (Homo sapiens, UniProt Q92736); assay: single-channel recording of purified hRyR2 in planar lipid bilayers, +[…] mV, cytosolic to luminal K+ current; assay type: biochemical
T1 construct: recombinant eGFP-hRyR2, purified from HEK293 cells

[2] = molecular target: T1, cardiac ryanodine receptor (RyR2); assay: single-channel recording of purified hRyR2 in planar lipid bilayers; association and dissociation rates of block; assay type: biochemical
Nav1.5 channel [3] = molecular target: T2, Nav1.5 channel (Homo sapiens, UniProt Q14524); assay: INa recording, use-dependent block at […] Hz ([…] QX-FL); assay type: cell-based
T2 construct: gene SCN5A; recombinant Nav1.5 in HEK293 (H-Flp/Nav1.5) cells

Nav1.5 channel [4] = molecular target: T2, Nav1.5 channel; assay: INa recording, use-dependent block at […] Hz ([…] NU-FL); assay type: cell-based

T1 sequence (Q92736 whole entry): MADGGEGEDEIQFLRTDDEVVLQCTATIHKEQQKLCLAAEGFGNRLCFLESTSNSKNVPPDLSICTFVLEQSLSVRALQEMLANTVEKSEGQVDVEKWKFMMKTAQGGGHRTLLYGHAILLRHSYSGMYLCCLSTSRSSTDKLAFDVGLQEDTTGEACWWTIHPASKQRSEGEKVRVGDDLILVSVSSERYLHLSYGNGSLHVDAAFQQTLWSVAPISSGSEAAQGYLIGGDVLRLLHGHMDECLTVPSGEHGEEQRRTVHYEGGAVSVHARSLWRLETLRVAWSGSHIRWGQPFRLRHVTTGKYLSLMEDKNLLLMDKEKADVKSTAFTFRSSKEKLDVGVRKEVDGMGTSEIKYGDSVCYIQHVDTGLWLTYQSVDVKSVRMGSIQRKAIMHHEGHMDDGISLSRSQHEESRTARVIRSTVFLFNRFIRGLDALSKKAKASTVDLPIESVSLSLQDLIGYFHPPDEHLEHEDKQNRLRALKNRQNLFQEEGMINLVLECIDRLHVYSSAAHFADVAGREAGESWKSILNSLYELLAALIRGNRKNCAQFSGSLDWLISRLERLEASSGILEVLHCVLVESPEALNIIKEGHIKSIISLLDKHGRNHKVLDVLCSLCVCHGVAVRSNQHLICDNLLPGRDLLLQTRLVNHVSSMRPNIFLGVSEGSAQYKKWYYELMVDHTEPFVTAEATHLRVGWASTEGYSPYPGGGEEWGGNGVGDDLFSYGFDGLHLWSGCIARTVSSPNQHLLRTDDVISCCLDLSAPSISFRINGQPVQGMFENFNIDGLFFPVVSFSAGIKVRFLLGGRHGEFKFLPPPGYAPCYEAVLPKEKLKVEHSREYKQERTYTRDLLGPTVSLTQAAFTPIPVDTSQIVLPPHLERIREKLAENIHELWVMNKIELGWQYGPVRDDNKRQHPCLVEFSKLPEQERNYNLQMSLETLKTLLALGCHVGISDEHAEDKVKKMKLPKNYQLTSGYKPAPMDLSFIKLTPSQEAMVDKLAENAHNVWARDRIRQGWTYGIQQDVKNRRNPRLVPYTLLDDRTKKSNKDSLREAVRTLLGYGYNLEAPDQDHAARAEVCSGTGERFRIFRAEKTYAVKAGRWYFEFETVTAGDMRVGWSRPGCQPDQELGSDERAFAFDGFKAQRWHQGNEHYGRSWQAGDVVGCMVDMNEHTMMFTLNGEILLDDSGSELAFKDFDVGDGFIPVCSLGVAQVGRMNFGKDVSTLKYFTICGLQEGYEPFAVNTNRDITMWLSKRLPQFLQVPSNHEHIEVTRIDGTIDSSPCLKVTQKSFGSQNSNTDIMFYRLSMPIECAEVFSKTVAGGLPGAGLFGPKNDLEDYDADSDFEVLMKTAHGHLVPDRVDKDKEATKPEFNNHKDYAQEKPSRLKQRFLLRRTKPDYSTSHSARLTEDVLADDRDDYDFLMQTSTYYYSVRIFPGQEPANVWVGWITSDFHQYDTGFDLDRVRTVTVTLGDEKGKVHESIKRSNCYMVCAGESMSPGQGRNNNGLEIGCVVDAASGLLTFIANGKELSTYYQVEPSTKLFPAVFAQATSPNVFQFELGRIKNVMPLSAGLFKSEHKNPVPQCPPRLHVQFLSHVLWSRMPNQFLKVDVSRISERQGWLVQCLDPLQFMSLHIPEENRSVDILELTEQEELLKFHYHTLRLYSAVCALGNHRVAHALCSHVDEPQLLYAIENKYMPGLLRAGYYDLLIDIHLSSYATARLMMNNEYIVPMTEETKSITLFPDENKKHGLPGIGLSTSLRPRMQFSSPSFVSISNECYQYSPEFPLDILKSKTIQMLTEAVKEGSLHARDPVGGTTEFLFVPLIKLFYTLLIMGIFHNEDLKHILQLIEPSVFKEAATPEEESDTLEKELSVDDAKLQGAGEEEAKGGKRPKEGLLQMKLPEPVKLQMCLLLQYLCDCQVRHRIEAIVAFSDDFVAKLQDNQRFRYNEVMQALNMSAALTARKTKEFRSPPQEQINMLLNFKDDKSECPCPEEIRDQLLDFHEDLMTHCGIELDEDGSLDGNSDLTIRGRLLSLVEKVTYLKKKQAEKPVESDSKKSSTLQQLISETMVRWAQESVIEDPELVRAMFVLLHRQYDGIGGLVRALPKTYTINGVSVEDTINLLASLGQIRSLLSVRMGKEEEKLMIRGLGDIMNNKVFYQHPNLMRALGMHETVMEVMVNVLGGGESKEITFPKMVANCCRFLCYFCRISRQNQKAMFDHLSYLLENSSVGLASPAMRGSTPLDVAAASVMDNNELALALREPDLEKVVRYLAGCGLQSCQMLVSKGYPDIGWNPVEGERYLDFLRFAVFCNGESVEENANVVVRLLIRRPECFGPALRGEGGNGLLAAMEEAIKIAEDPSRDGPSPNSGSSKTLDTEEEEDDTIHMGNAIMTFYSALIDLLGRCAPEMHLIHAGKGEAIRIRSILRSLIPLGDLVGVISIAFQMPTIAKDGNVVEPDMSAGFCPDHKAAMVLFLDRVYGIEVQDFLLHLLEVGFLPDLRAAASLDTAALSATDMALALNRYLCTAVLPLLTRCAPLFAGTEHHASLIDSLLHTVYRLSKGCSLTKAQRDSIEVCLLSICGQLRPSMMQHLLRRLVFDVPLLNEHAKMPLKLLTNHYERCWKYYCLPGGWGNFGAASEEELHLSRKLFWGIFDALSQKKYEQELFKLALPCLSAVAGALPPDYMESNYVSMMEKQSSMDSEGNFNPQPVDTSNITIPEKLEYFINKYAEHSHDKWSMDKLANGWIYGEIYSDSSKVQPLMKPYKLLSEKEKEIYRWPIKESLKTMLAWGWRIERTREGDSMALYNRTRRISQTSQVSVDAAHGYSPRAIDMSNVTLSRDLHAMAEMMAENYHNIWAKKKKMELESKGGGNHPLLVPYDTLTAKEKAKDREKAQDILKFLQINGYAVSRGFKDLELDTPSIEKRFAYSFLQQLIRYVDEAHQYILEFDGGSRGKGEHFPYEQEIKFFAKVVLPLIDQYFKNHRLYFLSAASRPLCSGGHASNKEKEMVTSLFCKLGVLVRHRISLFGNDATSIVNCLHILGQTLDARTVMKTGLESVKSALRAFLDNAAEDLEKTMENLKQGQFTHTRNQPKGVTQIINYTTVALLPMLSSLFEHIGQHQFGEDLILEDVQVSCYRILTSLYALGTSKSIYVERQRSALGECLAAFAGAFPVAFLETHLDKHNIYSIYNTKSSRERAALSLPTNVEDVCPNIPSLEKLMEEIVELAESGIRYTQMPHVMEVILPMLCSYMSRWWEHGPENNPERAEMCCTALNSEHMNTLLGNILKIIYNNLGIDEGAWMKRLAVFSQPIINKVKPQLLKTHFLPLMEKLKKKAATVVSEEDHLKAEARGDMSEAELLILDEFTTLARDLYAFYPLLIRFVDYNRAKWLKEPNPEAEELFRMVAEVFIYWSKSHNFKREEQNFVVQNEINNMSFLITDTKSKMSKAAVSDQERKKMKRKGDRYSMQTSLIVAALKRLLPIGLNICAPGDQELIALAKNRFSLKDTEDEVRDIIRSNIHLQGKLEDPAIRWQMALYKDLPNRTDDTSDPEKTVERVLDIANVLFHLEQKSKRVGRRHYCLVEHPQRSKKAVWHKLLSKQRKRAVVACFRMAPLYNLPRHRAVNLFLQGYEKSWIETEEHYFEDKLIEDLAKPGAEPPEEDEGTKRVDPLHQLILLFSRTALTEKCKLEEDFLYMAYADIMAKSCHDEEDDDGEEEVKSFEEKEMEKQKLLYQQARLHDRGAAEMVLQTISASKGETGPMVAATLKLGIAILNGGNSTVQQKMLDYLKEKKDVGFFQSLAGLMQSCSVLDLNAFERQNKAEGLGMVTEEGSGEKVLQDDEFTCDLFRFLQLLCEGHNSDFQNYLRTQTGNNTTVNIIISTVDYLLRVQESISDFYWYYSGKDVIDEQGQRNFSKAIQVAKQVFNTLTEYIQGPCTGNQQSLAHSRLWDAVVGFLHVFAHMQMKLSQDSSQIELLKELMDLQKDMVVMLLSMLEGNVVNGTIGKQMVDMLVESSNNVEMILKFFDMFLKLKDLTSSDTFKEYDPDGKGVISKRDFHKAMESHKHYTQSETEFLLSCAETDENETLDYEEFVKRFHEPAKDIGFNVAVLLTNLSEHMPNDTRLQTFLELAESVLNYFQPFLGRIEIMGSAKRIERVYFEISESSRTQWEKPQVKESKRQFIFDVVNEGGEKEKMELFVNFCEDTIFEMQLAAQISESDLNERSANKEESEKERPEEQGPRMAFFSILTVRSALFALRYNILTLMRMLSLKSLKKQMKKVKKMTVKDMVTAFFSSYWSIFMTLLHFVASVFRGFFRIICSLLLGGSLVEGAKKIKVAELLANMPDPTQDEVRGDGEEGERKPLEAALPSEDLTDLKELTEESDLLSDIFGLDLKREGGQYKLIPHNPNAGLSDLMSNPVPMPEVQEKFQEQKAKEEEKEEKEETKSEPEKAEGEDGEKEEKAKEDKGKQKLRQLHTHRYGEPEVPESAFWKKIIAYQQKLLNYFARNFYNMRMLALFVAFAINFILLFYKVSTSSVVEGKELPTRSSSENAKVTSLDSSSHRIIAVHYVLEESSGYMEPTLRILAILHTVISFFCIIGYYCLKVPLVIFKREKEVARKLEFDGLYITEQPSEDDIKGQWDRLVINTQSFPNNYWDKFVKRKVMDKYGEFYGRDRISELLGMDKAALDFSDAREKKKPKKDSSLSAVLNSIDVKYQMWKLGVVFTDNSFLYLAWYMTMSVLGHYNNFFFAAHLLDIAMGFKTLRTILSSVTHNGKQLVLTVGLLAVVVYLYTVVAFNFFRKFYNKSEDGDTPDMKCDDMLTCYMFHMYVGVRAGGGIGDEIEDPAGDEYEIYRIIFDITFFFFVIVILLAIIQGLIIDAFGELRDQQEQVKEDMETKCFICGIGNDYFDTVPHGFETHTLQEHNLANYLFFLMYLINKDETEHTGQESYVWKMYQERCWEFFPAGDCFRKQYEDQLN

O=C(NCC1CCCCN1)c1cc(OCC(F)(F)F)ccc1OCC(F)(F)F (centres unmarked) [flecainide]
Kd [1]: 13.1 ± 1.89 µM

C[N+]1(C)CCCCC1CNC(=O)c1cc(OCC(F)(F)F)ccc1OCC(F)(F)F (centres unmarked) [QX-FL]
kon [2]: 9.1e+08 ± 3e+07 M⁻¹ s⁻¹ | INa recording, use-dependent block at 10 Hz (10 μM QX-FL) (Nav1.5 channel [3]): Use‐dependent block (UDB) of voltage gated Na^+ channel current (INa) by flecainide analogues, NU‐FL and QX‐FL.

O=C(NCCN1CCOCC1)c1cc(OCC(F)(F)F)ccc1OCC(F)(F)F [NU-FL]
kon [2]: 6.2e+08 ± 5e+07 M⁻¹ s⁻¹ | INa recording, use-dependent block at 10 Hz (10 and 100 μM NU-FL) (Nav1.5 channel [4]): Use‐dependent block (UDB) of voltage gated Na^+ channel current (INa) by flecainide analogues, NU‐FL and QX‐FL.
